For 13 compounds, inhibition, Emax and IC50 results are on record in patent US10189796B2, “[4-(1,3,3-trimethyl-2-oxo-3,4-dihydro-1H-quinoxalin-7-yl)phenoxy]ethyloxy compound or salt thereof” (SANTEN PHARMACEUTICAL CO., LTD., priority 2015, dated 2019).

Where a name gives a salt, the structure may show the parent alone.

The target of one test is Recombinant human GR (Homo sapiens (Human), UniProt P04150). Put plainly: GR competitive binding assay by fluorescence polarization. The note with it: 20 μM test compound solution, 10 μL/well; 2 hours; DEX positive control; read-out: GR binding rate (%). On the procedure: In order to evaluate a binding activity of the present compound to GR, a GR receptor competitor assay was carried out by a fluorescence polarization method. In the assay, a GR competitive binding assay kit (manufactured by Invitrogen, cat No. P2816) was used for the assay, and a procedure was carried out according to the protocol attached to the kit. Hereinafter, the specific method will be described.
GR screening buffer: A buffer containing 10 mM of potassium phosphate (pH 7.4), 20 mM of sodium molybdate (Na2MoO4), 0.1 mM of ethylene diamine tetraacetic acid (EDTA), 5 mM of dithiothreitol (DTT), 0.1 mM of stabilizing peptide and 2% of dimethylsulfoxide was prepared.
4×GS1 solution: Fluormone™ GS1, which is a fluorescent glucocorticoid ligand, was diluted with GR screening buffer, whereby a 4 nM solution was prepared.
4×GR solution: Recombinant human GR was diluted with GR screening buffer, whereby a 16 nM solution was prepared.
After a test compound was dissolved in dimethylsulfoxide, the resulting solution was diluted with GR screening buffer, whereby a 20 μM test compound solution was prepared. In addition, DEX was similarly dissolved, whereby a DEX solution with a […] concentration was prepared, and the solution was diluted with GR screening buffer, whereby a 2 mM DEX solution was prepared. DEX was used as positive control.
• 1) The test compound solution was added in an amount of 10 μL into each well of a 384-well plate. • 2) 4×GS1 solution and 4×GR solution were added in an amount of 5 μL into each well, respectively. • 3) GR screening buffer was added in an amount of 10 μL/well into each well in place of the test compound solution, which was made a negative control. • 4) A 2 mM of DEX was added in an amount of 10 μL/well into each well in place of the test compound solution, which was made a positive control. • 5) The plate was incubated in a dark place at room temperature for 2 hours, and fluorescence polarization of each well was measured. (Calculation Equation of GR Binding Ratio)
A GR binding ratio (%) was calculated from the following equation. GR binding ratio (%)=100×{1−(fluorescence polarization of test compound solution−average value of fluorescence polarization of positive control solution)/(average value of fluorescence polarization of negative control solution−average value of fluorescence polarization of positive control solution)}
A general note: In fluorescence polarisation assays a small probe gives low polarisation when free and higher when bound to something large.

Test [1] deals with IL-6 production in human corneal epithelium cell line (HCE-T). Put plainly: IL-6 production inhibitory action evaluation test (LPS stimulation, HTRF). The format is cell-based. Conditions: 4 hours; for Emax: 100 μM test compound solution 10 μL/well, DEX treated group = 100, read-out: IL-6 production inhibitory ratio (% DEX); for IC50: IL-6 production inhibition. The protocol: To evaluate the action of the present compounds as a GR agonist, IL-6 production inhibitory action in human corneal epithelial cell line after LPS stimulation was examined The IL-6 production was measured by using the HTRF method (Cat No. 62IL6PEB manufactured by Cisbio Bioassays, Inc.) according to the attached protocol. The specific method is described below.
LPS solution: After dissolving LPS in PBS(−), the resulting solution was diluted with a culture solution, whereby an LPS solution with a 1 μg/mL concentration was prepared.
After dissolving the test compound in dimethylsulfoxide, the solution was diluted with a 10% FBS-DMEM/Ham's F12 medium, whereby a 100 μM of the test compound solution was prepared. […] In addition, DEX was similarly dissolved, whereby a 100 μM concentration of the DEX solution was prepared, and an IL-6 production inhibitory ratio of DEX was measured, and used for calculation of Efficacy (% DEX).
Used cells: human corneal epithelium cell line (HCE-T) (RIKEN, Institute of Physical and Chemical Research)
The cells continued to subculture according to this method were used for the test. (Test Method and Measurement Method) • 1) The subcultured HCE-T was recovered and the cells were seeded at 2.0×10^4 cells/0.1 mL/well in a 96-well flat bottom culture plate. • 2) After culturing overnight, medium the medium was removed and each 80 μL/well of 10%
FBS-DMEM/Ham's F12 medium was added. • 3) Test compound solution was added with each 10 μL/well. • 4) LPS solution was added with each 10 μL/well. • 5) The sample to which 1% dimethylsulfoxide-containing 10% FBS-DMEM/Ham's F12 medium was added with each 10 μL/well in place of each test compound solution, and 10% FBS-DMEM/Ham's F12 medium was added in place of the LPS solution was made a negative control. • 6) The sample in which 1% dimethylsulfoxide-containing 10% FBS-DMEM/Ham's F12 medium was added with each 10 μL/well in place of each test compound solution was made a positive control. • 7) After completion of 4 hours cultivation, the supernatant was recovered and the amount of IL-6 released in the supernatant was measured by using an HTRF human IL-6 Kit. • 8) The IL-6 production inhibitory ratio was calculated according to the following calculation formula. (Calculation of IL-6 Production Inhibitory Ratio)
The IL-6 production inhibitory ratio (%) was calculated by the following formula. IL-6 production inhibitory ratio (%)=100×{1−(IL-6 produced amount of each test compound solution−average value of IL-6 produced amount of negative control group)/(average value of IL-6 produced amount of positive control group−average value of IL-6 produced amount of negative control group)}(%)
Further, the IL-6 production inhibitory ratio (Efficacy (% DEX)) when the DEX treated group was made 100 was calculated. Efficacy (% DEX)=100×{(average value of IL-6 production inhibitory ratio of each test compound solution)/(average value of IL-6 production inhibitory ratio of DEX treated group)}(%)
In addition, IC50 was calculated according to a conventional method. IDBS XLfit4 was used for the calculation.

Chain of Recombinant human GR (P04150 whole entry): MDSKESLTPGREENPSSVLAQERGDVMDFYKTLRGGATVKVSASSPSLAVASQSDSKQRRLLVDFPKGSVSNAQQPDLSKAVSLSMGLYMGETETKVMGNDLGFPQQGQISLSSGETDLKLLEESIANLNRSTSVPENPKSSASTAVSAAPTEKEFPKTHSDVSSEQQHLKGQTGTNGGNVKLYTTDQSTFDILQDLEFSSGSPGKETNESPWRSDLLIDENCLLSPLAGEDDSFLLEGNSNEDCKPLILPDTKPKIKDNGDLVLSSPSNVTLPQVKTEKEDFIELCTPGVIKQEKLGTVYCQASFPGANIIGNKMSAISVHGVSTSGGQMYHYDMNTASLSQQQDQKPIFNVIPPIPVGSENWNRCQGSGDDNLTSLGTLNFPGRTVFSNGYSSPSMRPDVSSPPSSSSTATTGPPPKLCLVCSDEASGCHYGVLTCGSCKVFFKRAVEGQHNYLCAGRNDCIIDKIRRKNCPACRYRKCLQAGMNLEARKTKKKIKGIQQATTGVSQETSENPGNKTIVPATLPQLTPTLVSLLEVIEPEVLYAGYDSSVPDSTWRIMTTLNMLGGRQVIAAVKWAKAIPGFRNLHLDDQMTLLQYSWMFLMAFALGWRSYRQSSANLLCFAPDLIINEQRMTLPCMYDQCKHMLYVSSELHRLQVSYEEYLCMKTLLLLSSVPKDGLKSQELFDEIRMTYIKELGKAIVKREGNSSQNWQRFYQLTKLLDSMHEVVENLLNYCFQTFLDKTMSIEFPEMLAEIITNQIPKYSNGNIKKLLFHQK

As for `COc1cc(OC[C@H](C)OC(=O)[C@@H](N)C(C)C)ccc1-c1ccc2c(c1COc1cc(F)ccc1C)N(C)C(=O)C(C)(C)N2` [Compound 11-5, 7-[4-[(2S)-[(2S)-amino-3-methylbutanoyloxy]propyl]oxy-2-methoxyphenyl]-8-(5-fluoro-2-methylphenoxymethyl)-1,3,3-trimethyl-3,4-dihydro-1H-quinoxalin-2-one hydrochloride], the inhibition at 10 µM on Recombinant human GR was more than 99%. The Emax in test [1] is 94%.

As to `COc1cc(OC[C@H](O)CO)ccc1-c1ccc2c(c1COc1cc(F)ccc1C)N(C)C(=O)C(C)(C)N2` [Compound 4-3, (R)-7-[4-(2,3-dihydroxypropyl)oxy-2-methoxyphenyl]-8-(5-fluoro-2-methylphenoxy-methyl)-1,3,3-trimethyl-3,4-dihydro-1H-quinoxalin-2-one], at Recombinant human GR, the inhibition at 10 µM came to 88%.

For `COc1cc(OC[C@H](C)OC(=O)CN)ccc1-c1ccc2c(c1COc1cc(F)ccc1C)N(C)C(=O)C(C)(C)N2` [Compound 11-4, (S)-7-[4-(2-aminoacetoxypropyl)oxy-2-methoxyphenyl]-8-(5-fluoro-2-methylphenoxy-methyl)-1,3,3-trimethyl-3,4-dihydro-1H-quinoxalin-2-one hydrochloride], the Emax in test [1] was 94%.

On to `CCOC(=O)CC(O)COc1ccc(-c2ccc3c(c2COc2cc(F)ccc2C)N(C)C(=O)C(C)(C)N3)c(OC)c1` (centres unmarked) [Compound 7-1, 7-[4-(3-ethoxycarbonyl-2-hydroxypropyl)oxy-2-methoxyphenyl]-8-(5-fluoro-2-methylphenoxymethyl)-1,3,3-trimethyl-3,4-dihydro-1H-quinoxalin-2-one], for which the inhibition at 10 µM at Recombinant human GR is more than 99%.

In the case of `COc1cc(OCC(O)CC(=O)O)ccc1-c1ccc2c(c1COc1cc(F)ccc1C)N(C)C(=O)C(C)(C)N2` (centres unmarked) [Compound 9-1, 7-[4-(3-Carboxy-2-hydroxypropyl)oxy-2-methoxyphenyl]-8-(5-fluoro-2-methylphenoxymethyl)-1,3,3-trimethyl-3,4-dihydro-1H-quinoxalin-2-one], the inhibition at 10 µM on Recombinant human GR was more than 99%.

Turning to `COc1cc(OCC(O)CO)ccc1-c1ccc2c(c1COc1cc(F)ccc1C)N(C)C(=O)C(C)(C)N2` (centres unmarked) [Compound 4-1, 7-[4-(2,3-dihydroxypropyl)oxy-2-methoxyphenyl]-8-(5-fluoro-2-methylphenoxymethyl)-1,3,3-trimethyl-3,4-dihydro-1H-quinoxalin-2-one], the inhibition at 10 µM at Recombinant human GR is more than 99%.

On to `COc1cc(OCCO)ccc1-c1ccc2c(c1COc1cc(F)ccc1C)N(C)C(=O)C(C)(C)N2` [Compound 3-1, 8-(5-fluoro-2-methylphenoxymethyl)-7-[4-(2-hydroxyethyl)oxy-2-methoxyphenyl]-1,3,3-trimethyl-3,4-dihydro-1H-quinoxalin-2-one], for which the inhibition at 10 µM on Recombinant human GR is more than 99%.

As a reminder, the IC50 is the concentration needed to halve the response being measured. The low end stands for higher potency, the high end for lower potency. Turning to `CCOC(=O)C(O)COc1ccc(-c2ccc3c(c2COc2cc(F)ccc2C)N(C)C(=O)C(C)(C)N3)c(OC)c1` (stereo in doubt) [Compound 1-6, (R)-7-[4-(2-ethoxycarbonyl-2-hydroxyethyl)oxy-2-methoxyphenyl]-8-(5-fluoro-2-methylphenoxymethyl)-1,3,3-trimethyl-3,4-dihydro-1H-quinoxalin-2-one], the inhibition at 10 µM at Recombinant human GR came to 87%. In addition, in test [1], the Emax came out at 89% and the concentration for half-maximal inhibition (IC50) is less than 1 nM.

Turning to `COc1cc(OC[C@H](O)CC#N)ccc1-c1ccc2c(c1COc1cc(F)ccc1C)N(C)C(=O)C(C)(C)N2` [Compound 5-1, (R)-7-[4-(3-cyano-2-hydroxypropyl)oxy-2-methoxyphenyl]-8-(5-fluoro-2-methyl-phenoxymethyl)-1,3,3-trimethyl-3,4-dihydro-1H-quinoxalin-2-one], the inhibition at 10 µM on Recombinant human GR amounted to 88%. Besides, in test [1], the Emax is 98% and the concentration for half-maximal inhibition (IC50) worked out at 14 nM.

`COc1cc(OC[C@@H](O)CO)ccc1-c1ccc2c(c1COc1cc(F)ccc1C)N(C)C(=O)C(C)(C)N2` [Compound 4-2, (S)-7-[4-(2,3-dihydroxypropyl)oxy-2-methoxyphenyl]-8-(5-fluoro-2-methylphenoxy-methyl)-1,3,3-trimethyl-3,4-dihydro-1H-quinoxalin-2-one]: the inhibition at 20 µM (stock) at Recombinant human GR is more than 99%.

On to `COc1cc(OCC(O)CC(=O)OC(C)(C)C)ccc1-c1ccc2c(c1COc1cc(F)ccc1C)N(C)C(=O)C(C)(C)N2` (centres unmarked) [Compound 7-2, 7-[4-(3-t-butoxycarbonyl-2-hydroxypropyl)oxy-2-methoxyphenyl]-8-(5-fluoro-2-methylphenoxymethyl)-1,3,3-trimethyl-3,4-dihydro-1H-quinoxalin-2-one], for which the inhibition at 10 µM on Recombinant human GR was more than 99%. Moreover, in test [1], the Emax is more than 99% and 83 nM corresponded to half-maximal inhibition (IC50).

For the compound `COc1cc(OCC(O)CC(=O)N2CCCCC2)ccc1-c1ccc2c(c1COc1cc(F)ccc1C)N(C)C(=O)C(C)(C)N2` (centres unmarked) [Compound 10-3, 8-(5-fluoro-2-methylphenoxymethyl)-7-[4-[3-(N-piperidino)carbonyl-2-hydroxy-propyl]oxy-2-methoxyphenyl]-1,3,3-trimethyl-3,4-dihydro-1H-quinoxalin-2-one], the inhibition at 10 µM at Recombinant human GR was more than 99%.

For the compound `COc1cc(OCC(O)CC(=O)N2CCCC2)ccc1-c1ccc2c(c1COc1cc(F)ccc1C)N(C)C(=O)C(C)(C)N2` (centres unmarked) [Compound 10-1, 8-(5-fluoro-2-methylphenoxymethyl)-7-[4-[3-(N-pyrrolidylcarbonyl)-2-hydroxypropyl]oxy-2-methoxyphenyl]-1,3,3-trimethyl-3,4-dihydro-1H-quinoxalin-2-one], the inhibition at 10 µM on Recombinant human GR came to 94%.
